Results on 11 compounds are retold here after article PMC7180572, “5-Alkylamino-N-phenylpyrazine-2-carboxamides: Design, Preparation, and Antimycobacterial Evaluation” (Molecules, 2020).

Molecules are shown by their SMILES. In brackets after ≈: the same amount, converted by molar mass. Like-named read-outs stand apart in the source and are kept apart here. Bounds are passed on as bounds.

In data set [1] the test system is Mycobacterium aurum DSM 43999 (ATCC 23366). Description: Microdilution broth, modified Microplate Alamar Blue Assay, whole cell growth inhibition. The following applies: Mycolicibacterium aurum, read-out: MIC Mycobacterium aurum. Format: cell-based. Background: Broth dilution looks for growth in wells or tubes with falling amounts of substance.
Data set [2] deals with Mycobacterium smegmatis DSM 43465 (ATCC 607). The data set is described as above. Format: cell-based. Conditions: Mycolicibacterium smegmatis, read-out: MIC Mycobacterium smegmatis.
The format of data set [3] is physicochemical. Here is the method:
As a complementary test, final compounds were tested for in vitro activity against selected fungal and bacterial pathogens of clinical importance. The microdilution broth method was performed according to The European Committee on Antimicrobial Susceptibility Testing (EUCAST) instructions with slight modifications. The minimum inhibitory concentration was expressed in µM. Not all compounds were evaluated due to the fact of a problem with solubility which occurred for 18 samples. […] See Supplementary Materials for the list of tested strains, methodology, and full results.

The test system of another data set is HepG2 cells. Description: HepG2 cytotoxicity, CellTiter 96 (MTS) assay. The following applies: Homo sapiens, HepG2; 24 h incubation; > means higher concentration not reproducible due to precipitation; read-out: HepG2 IC50. Format: cell-based, human.
Data set [4] concerns Mycobacterium tuberculosis H37Ra ITM-M006710 (ATCC 9431). In words: Microdilution broth, modified Microplate Alamar Blue Assay, whole cell growth inhibition. Format: cell-based. The following applies: Mycobacterium tuberculosis, read-out: MIC Mtb H37Ra.
The subject of data set [5] is M. kansasii CNCTC My 235/80 (ATCC 12478). In words: 96 well plate microdilution broth method with Alamar Blue. Format: cell-based. Conditions: Mycobacterium kansasii, ATCC12478; Middlebrook 7H9 broth pH 6.6; read-out: MIC Mycobacterium kansasii.
For data set [6], the system named is M. avium ssp. avium CNCTC My 80/72 (ATCC 15769). Described as above. Format: cell-based. Conditions: Mycobacterium avium, ATCC15769; Middlebrook 7H9 broth pH 6.6; read-out: MIC Mycobacterium avium.
[7] abbreviates: in vitro, Middlebrook 7H9 broth, resazurin.

Broadly, the MIC is the lowest concentration that inhibits growth of the organism. For orientation: melting point means the temperature, or range, at which the solid turns liquid. For orientation: IC50 means the concentration at which inhibition is half-maximal. As to `CCCCNc1cnc(C(=O)Nc2ccc(CC)cc2)cn1` [Compound 5b, 5-(Butylamino)pyrazine-N-(4-ethylphenyl)-2-carboxamide], the melting point lay within 133.8 to 134.8 °C. Moreover, the MIC in data set [1] (setting [7]) is at least 500 µg/mL. For the same compound, in data set [2] (setting [7]), the MIC is at least 500 µg/mL. For the same compound, in data set [3], the “Solubility problem in antibacterial/antifungal testing” value was “precipitated in both growth media”. Besides, in the data set with HepG2 cells, the IC50 is over 50 µM. Moreover, in data set [4] (setting [7]), the MIC is at least 500 µg/mL.

In turn, `CCCCCNc1cnc(C(=O)Nc2ccc(CC)cc2)cn1` [Compound 5c, N-(4-ethylphenyl)-5-(pentylamino)pyrazine-2-carboxamide] displayed a melting point of 136.1 to 137.1 °C. Moreover, the MIC in data set [1] (setting [7]) is at least 500 µg/mL. For the same compound, the MIC in data set [2] (setting [7]) is at least 500 µg/mL. Further, in data set [3], the “Solubility problem in antibacterial/antifungal testing” value is recorded as “precipitated in both growth media”. In the data set with HepG2 cells, the IC50 was over 25 µM. In data set [4] (setting [7]), the MIC was at least 500 µg/mL.

In the case of `CCCCCCCCNc1cnc(C(=O)Nc2ccc(CC)cc2)cn1` [Compound 5f, N-(4-ethylphenyl)-5-(octylamino)pyrazine-2-carboxamide], the melting point lay within 131 to 132 °C. Also, the MIC in data set [1] (setting [7]) is at least 250 µg/mL. Besides, the MIC in data set [2] (setting [7]) is at least 250 µg/mL. The “Solubility problem in antibacterial/antifungal testing” value in data set [3] is given as “precipitated in both growth media”. In the data set with HepG2 cells, the IC50 was over 10 µM. Moreover, the MIC in data set [4] (setting [7]) was at least 250 µg/mL.

In the case of `CCCCCCCCNc1cnc(C(=O)Nc2ccc(Cl)cc2O)cn1` [Compound 6f, N-(4-chloro-2-hydroxyphenyl)-5-(octylamino)pyrazine-2-carboxamide], the melting point is 196.9 to 197.9 °C. Besides, the MIC in data set [1] (setting [7]) was at least 500 µg/mL. The MIC in data set [2] (setting [7]) is 7.81 µg/mL (≈ 20.7 µM). For the same compound, the “Solubility problem in antibacterial/antifungal testing” value in data set [3] is “did not dissolve in DMSO”. Further, the IC50 in the data set with HepG2 cells is over 50 µM. Also, the MIC in data set [4] (setting [7]) is at least 500 µg/mL.

Turning to `CCCNc1cnc(C(=O)Nc2cc(Cl)ccc2O)cn1` [Compound 7a, N-(5-chloro-2-hydroxyphenyl)-5-(propylamino)pyrazine-2-carboxamide], the melting point lay within 254 to 259 °C. In addition, in data set [1] (setting [7]), the MIC is 250 µg/mL (≈ 815 µM). The minimal inhibitory concentration (MIC) in data set [2] (setting [7]) is under 3.91 µg/mL. The “Solubility problem in antibacterial/antifungal testing” value in data set [3] was “did not dissolve in DMSO”. For the same compound, in the data set with HepG2 cells, the IC50 was over 25 µM. In addition, the MIC in data set [4] (setting [7]) is at least 500 µg/mL.

In the case of `CCCCNc1cnc(C(=O)Nc2cc(Cl)ccc2O)cn1` [Compound 7b, 5-(Butylamino)pyrazine-N-(5-chloro-2-hydroxyphenyl)-2-carboxamide], the melting point was in the range of 257.9 to 262.1 °C. Further, the MIC in data set [1] (setting [7]) is at least 500 µg/mL. Besides, the MIC in data set [2] (setting [7]) was found to be 3.91 µg/mL (≈ 12.2 µM). Further, the “Solubility problem in antibacterial/antifungal testing” value in data set [3] is “did not dissolve in DMSO”. In addition, in the data set on HepG2 cells, the IC50 was over 25 µM. For the same compound, the MIC in data set [4] (setting [7]) was at least 500 µg/mL.

As to `CCCCCNc1cnc(C(=O)Nc2cc(Cl)ccc2O)cn1` [Compound 7c, N-(5-chloro-2-hydroxyphenyl)-5-(pentylamino)pyrazine-2-carboxamide], the melting point was 250.3 to 255.1 °C. Moreover, in data set [1] (setting [7]), the MIC is at least 500 µg/mL. Also, the MIC in data set [2] (setting [7]) was at least 500 µg/mL. For the same compound, the “Solubility problem in antibacterial/antifungal testing” value in data set [3] is recorded as “did not dissolve in DMSO”. The IC50 with HepG2 cells was over 25 µM. Also, the MIC in data set [4] (setting [7]) is at least 500 µg/mL.

In the case of `CCCCCCNc1cnc(C(=O)Nc2cc(Cl)ccc2O)cn1` [Compound 7d, N-(5-chloro-2-hydroxyphenyl)-5-(hexylamino)pyrazine-2-carboxamide], the melting point lay within 249.3 to 251.9 °C. Further, in data set [1] (setting [7]), the MIC is at least 500 µg/mL. Further, the minimum inhibitory concentration (MIC) in data set [2] (setting [7]) was at least 500 µg/mL. Besides, the “Solubility problem in antibacterial/antifungal testing” value in data set [3] is on record as “did not dissolve in DMSO”. In addition, the IC50 in the data set on HepG2 cells is over 25 µM. Moreover, the MIC in data set [4] (setting [7]) is at least 500 µg/mL.

As to `CCCCCCCNc1cnc(C(=O)Nc2cc(Cl)ccc2O)cn1` [Compound 7e, N-(5-chloro-2-hydroxyphenyl)-5-(heptylamino)pyrazine-2-carboxamide], the melting point is 243.6 to 246 °C. In addition, the MIC in data set [1] is at least 500 µg/mL. Besides, the MIC in data set [2] is 31.2 µg/mL (≈ 86.1 µM). In addition, the “Solubility problem in antibacterial/antifungal testing” value in data set [3] is recorded as “did not dissolve in DMSO”. For the same compound, in the data set with HepG2 cells, the IC50 is over 10 µM. Also, the MIC in data set [4] is at least 500 µg/mL.

Consider `CCCCCCCCNc1cnc(C(=O)Nc2cc(Cl)ccc2O)cn1` [Compound 7f, N-(5-chloro-2-hydroxyphenyl)-5-(octylamino)pyrazine-2-carboxamide], for which the melting point was 239.7 to 242.4 °C. Moreover, the MIC in data set [1] (setting [7]) was at least 500 µg/mL. For the same compound, the MIC in data set [2] (setting [7]) stood at 250 µg/mL (≈ 663 µM). The “Solubility problem in antibacterial/antifungal testing” value in data set [3] is on record as “did not dissolve in DMSO”. Further, the half-maximal inhibitory concentration (IC50) with HepG2 cells is over 50 µM. Besides, in data set [4] (setting [7]), the MIC is at least 500 µg/mL.

On to `NNC(=O)c1ccncc1` [INH, isoniazid, reference compound], for which the MIC is 25 µg/mL (≈ 182 µM) in data set [5]; 3.91 to 7.81 µg/mL (≈ 28.5 to 56.9 µM) in data set [1] (setting [7]); 7.81 to 15.6 µg/mL (≈ 56.9 to 114 µM) in data set [2] (setting [7]); 25 µg/mL (≈ 182 µM) in data set [6]; 0.125 to 0.25 µg/mL (≈ 0.911 to 1.82 µM) in data set [4] (setting [7]).
